In article PMC7067850, “Identification of highly potent and selective inhibitor, TIPTP, of the p22phox-Rubicon axis as a therapeutic agent for rheumatoid arthritis” (Scientific Reports, 2020):

How the values were obtained:
[1] = Pharmacokinetic study in male ICR mice (IP and IV); format: in vivo, mouse
Procedure: TIPTP at a dose of 0.5 mg/kg and 1 mg/kg was administered intravenously and intraperitoneally to male ICR mice. Blood samples were collected via the carotid artery at 0 (to serve as a control), 0.03, 0.16, 0.25, 0.5, 1, 2, 4, 6, and 24 h after administration of the compound. After centrifugation at 3000 rpm for 10 min, a 13.5 µL aliquot of plasma samples were stored at -20 C until analysis. Pharmacokinetic parameters were determined by a noncompartmental analysis using WinNonlin® (Pharsight Corporation, Mountain View, CA) program. The total area under the plasma concentration-time curve from time zero to the last measured time (AUClast) was calculated by the trapezoidal rule[…] method. Standard methods in the literature (M. Gibaldi, D. Perrier, Pharmacokinetics, second ed., Marcel-Dekker, New York, 1982.) were used to calculate the following pharmacokinetic parameters; the time averaged total body clearance (CL), total area under the first moment of plasma concentration-time curve from time zero to time infinity (AUC0-∞), terminal half-life, mean residence time (MRT), apparent volume of distribution at steady state (Vss). Concentrations of the compound in the above samples were analyzed using LC-MS/MS. To a 13.5 µL aliquot of plasma sample, a 60 µL aliquot of acetonitrile containing 1 µg/mL of internal standard (carbamazepine) was added. After vortex mixing and centrifugation at 6,000 rpm for 15 min, a […] of supernatant was added to 100μL distilled water and injected into LCMS/MS system. The LC-MS/MS system consisted of Agilent 1200 series HPLC system (Agilent, Santa Clara, CA) and API3200® triple-quadrupole mass spectrometer (Applied Biosystems-SCIEX, Concord, Canada). The HPLC mobile phases consisted of 0.1% formic acid in water (A) and acetonitrile (B). Chromatographic separation was achieved on a reversed-phase Atlantis T3 column (100 x 2.1 mm, 3 µm, Waters Corporation, Milford, MA) using gradient elution at a flow rate of 0.25 mL/min. The lower limit of quantitation of the compound in mice plasma was 9.7 ng/mL. The values of coefficients of correlation (R) were more than 0.997.

[2] = tested on: human monocytes; experiment: LPS-primed, ATP-activated human monocytes (co-IP, ELISA, immunoblot); format: cell-based
Procedure: The mouse macrophage cell line RAW264.7 (ATCC TIB-71; American Type Culture Collection) and HEK293T (ATCC-11268) cells were maintained in DMEM (Invitrogen) containing 10% FBS (Invitrogen), sodium pyruvate, nonessential amino acids, penicillin G (100 IU/ml), and streptomycin (100 μg/ml). Transient transfections were performed with Lipofectamine 3000 (Invitrogen), or calcium phosphate (Clontech), according to the manufacturer’s instructions. Raw264.7 stable cell lines were generated using a standard selection protocol with 2 μg/ml of puromycin. Mouse primary bone marrow derived-macrophages (BMDMs) were isolated from C57BL/6 mice and cultured in DMEM for 3–5 days in the presence of 25 ng/ml recombinant macrophage colony stimulating factor (R&D Systems, 416-ML, Minneapolis, MN, USA), as described previously. Human adherent monocytes were prepared from PBMCs donated by healthy subjects, as described previously. […]
Cell culture supernatants, mice sera and synovial fluid were analyzed for cytokine content using the BD OptEIA ELISA set (BD Pharmingen) for the detection of TNF-α, IL-6, IL-1β, and IL-18. […]
Figure 6 TIPTP is active for cells from healthy humans or patients with RA. […] (b) Culture supernatants were harvested and analyzed for cytokines by ELISA (left). […] (e) Culture supernatants were harvested and analyzed for cytokines by ELISA (left). […]

[3] = IP, 1 mg/kg, male ICR mouse plasma
[4] = IV, 0.5 mg/kg, male ICR mouse plasma

Which results are given for `C[C@@H](Oc1cccc(-n2cc3c(n2)CCCC3)c1)C(=O)Nc1nnc(C(F)(F)F)s1` [TIPTP, (R)-2-(3-(4,5,6,7-tetrahydro-2H-indazol-2-yl)phenoxy)-N-(5-(trifluoromethyl)-1,3,4-thiadiazol-2-yl)propanamide]?
AUC(0-inf) [1, 3]: 15100 ± 3410 ng·h/mL; Cmax [1, 3]: 5590 ± 1430 ng/mL; MRT inf [1, 3]: 3.42 ± 0.43 h; Tmax [1, 3]: 0.23 ± 0.04 h; half-life [1, 3]: 2.91 ± 0.14 h; AUC(0-t) ([1]; IP, 1 mg/kg, male ICR mouse plasma, n = 5, mean ± SD): 15100 ± 3410 ng·h/mL; AUC(0-inf) [1, 4]: 10000 ± 451 ng·h/mL; MRT inf [1, 4]: 2.57 ± 0.52 h; half-life [1, 4]: 3.67 ± 0.39 h; AUC(0-t) ([1]; IV, 0.5 mg/kg, male ICR mouse plasma, n = 3, mean ± SD): 9980 ± 446 ng·h/mL; clearance ([1]; plasma, IV, 0.5 mg/kg, male ICR mouse): 0.832 mL/min/kg; Vd ([1]; plasma, IV, 0.5 mg/kg, male ICR mouse, read-out: Vss): 0.128 ± 0.0246 L/kg; IL-1β and IL-18 cytokines, caspase-1 activation, IL-1β and IL-18 maturation ([2]; human blood-derived monocytes, LPS/ATP, dose-dependent (Fig. 6b)): inhibited; p22phox–Rubicon interaction ([2]; normal human monocytes, LPS/ATP, 0.01, 0.1, 1 μM, dose-dependent (Fig. 6a)): inhibited
